Results from US9068013B2, “Recombinant lectins, binding-site modified lectins and uses thereof” (SMART CELLS, INC., priority 2010, dated 2015).

How the values were obtained:
[1] = Gel formation with glycogen (OD490 turbidity); conditions: 10 mg/ml rCon A, 10 or 1 mg/ml glycogen, pH 7 BES buffer, 10 minutes room temperature
Description: rCon A synthesised and purified according to Examples 42-44 were tested for their ability to form gels with glycogen. Alpha methyl mannose present in the samples was initially removed as follows. Samples were added to BioSpin 30 columns (Bio-Rad, Hercules, Calif.) that had been previously equilibrated with deionized water. The BioSpin columns were centrifuged for 4 minutes at 1000×g, and the resulting eluent contained rCon A samples that had been substantially desalted and alpha methyl mannose removed. Samples were combined and A280 measurements were obtained. Typically, the A280 measurements correlated with the A280 measurements obtained before removal of alpha methyl mannose.
The following assay was then used to measure gel formation with glycogen. Unmodified Oyster glycogen Type II (Sigma Aldrich, St. Louis, Mo.) was dissolved at 10 mg/ml in pH 7, 200 mM BES buffer (Sigma Aldrich, St. Louis, Mo.). […] The plate was allowed to develop at room temperature for 10 minutes, after which time the turbidity of each plate well was assayed using a commercially available microplate reader (SpectraMAX, Molecular Devices, Mountain View, Calif.) at a wavelength of 490 nm (OD490). […]

[2] = system: fasted normal non-diabetic rats; assay: Blood glucose depression profile after subcutaneous injection; format: in vivo, rat (Male Sprague-Dawley); conditions: non-diabetic SD rats
Description: (§1) Blood glucose values were measured using commercially available test strips (Precision Xtra, Abbott Laboratories, Abbott Park, Ill.).
as §1, §1
Blood glucose values were measured using commercially available test strips (Precision Xtra, Abbott Laboratories, Abbott Park, Ill.). In addition, blood from each timepoint was centrifuged at 4 C to collect the serum.

[3] = subcutaneous, 0.25 ml of 20 U of equivalent insulin/ml

## SCI-1: recombinant Con A construct, amino acid sequence SEQ ID NO: 1 (wild-type Con A)
[1]
  gel formation with glycogen: formed gels with glycogen that were comparable to gels formed by native (plant-derived) Con A controls

## insulin-dextran: comparative insulin-dextran (MW 70K) conjugate made by CNBr coupling, 10% (w/w) insulin
[2]; [3]
  time serum glucose levels remain depressed post injection: at least five
  time to reach the glucose nadir (Tnadir): about 3 hours

## insulin-glycogen: comparative conjugate of insulin with oyster glycogen (Type II) by CNBr coupling, Example 32
[2]; 2.5 equivalent U of insulin/kg subcutaneous
  glucose lowering compared to the insulin-dextran conjugates: lower glucose levels much more rapidly and to a greater extent
